Experimental data published in patent publication US7482008B1, “Human T cell reactive feline protein (TRFP) isolated from house dust and uses therefor” (Merck Patent GmbH, priority 1989, dated 2009).

Key:
Assay type in all cases: in vivo, mouse
B6CBAF1 mice [1] = assay: Oral induction of T cell non-responsiveness, protocol 1; details: fed on days -7, -5, -2
Description: The draining lymph nodes (i.e., inguinal, paraaortic and popliteal), the mesenteric lymph nodes, and the spleen were surgically removed from the animals 10-12 days after antigen challenge. Cells from these tissues were suspended by being forced through a stainless steel mesh with a glass pestle. The cells were washed twice in RPMI 1640 medium with a 1% fetal calf serum (FCS) before culture. All cells were cultured at 37° C. in 5% CO2 in RPMI 1640 with 10% FCS (no. F4884, Sigma), 100 units of penicillin G per ml, 10 μg of streptomycin per ml, 10 mM glutamine, and 0.05 mM 2-mercaptoethanol. […]. Cells were cultured in triplicate, 0.2 ml per well at 4×10^6 cells per ml, in 96-well plates. Supernatants were removed from the wells after 24 hours to test for the production of IL-2 or IL-3 and were frozen to kill any transferred cells or removed after 48 hours for testing IL-4 production. Separate triplicate wells were incubated for 96 hours for the proliferation assay. The supernatants were kept at […] for several days to kill transferred cells.
Lymph node of spleen cells were plated in a flat bottom 96-well plate (4×10^5/well) in 100 μl medium. Peptide or recombinant protein or control solution (100 μl) is added to each well and the cells allowed to incubate for 1 day at 37° C. On day 2, the cultures were pulsed with [^3H] thymidine (1 μCi per well in 50 μl of medium; 1 Ci=37 GBq) for 4 to 6 hours, and on day 3, the plates were harvested with a 96-well harvester (Tomtec, Orange, Conn.) and counted on a Betaplate scintillation counter (Pharmacia, Upsaala Sweden).
To measure IL-2, supernatants were tested after thawing for the ability to support the growth of an IL-2-dependent line such as CTLL-2 (University of California, Berkeley). […] After a 24 hour incubation, the cells were pulsed with [^3H] thymidine (1 μCi per well in 50 μl of medium; 1 Ci=37 GBq) for 4 to 6 hours and the plates were harvested with a 96-well harvester (Tomtec, Orange, Conn.) and counted on a Betaplate scintillation counter (Pharmacia, Upsaala Sweden).

mice primed to rch1 = assay: Duration of peptide inhibitory effects on T cell function in rCh1 primed mice; details: FIG. 25
Description: Mice were injected with recombinant TRFP Chain 1 (rCh1) in Incomplete Freund's Adjuvant. Three months later all the mice were primed to rch1 as judged by their development of significant titers of anti-rch1 antibody.

[2] = test system: BDF1 mice preimmunized with TRFP; assay: Peptide Y specific antibody ELISA of sera from TRFP-preimmunized, peptide Y tolerized mice
Description: The serum was separated as previously described. […] Each incubation step in this protocol lasts 1 hour at 37° C. The wells were incubated with gelatin in PBS for blocking excess binding to the plate. Sera were diluted in PBS in a range from 1/300 to 1/8100 and incubated in triplicate on the plates. After rinsing, the bound mouse antibody was detected by incubation with biotinylated goat anti-mouse IgG (Southern Biotechnology Associates). Streptavidin conjugated to horse radish peroxidase (Southern Biotechnology Associates) was added to detect antigen bound biotinylated antibody-complexes. […] The data from the other sera dilutions were consistent with the data from the 1/900 sera dilution.
The sera were assayed for the presence of peptide Y specific IgM, IgE, and IgG isotypes. The ELISA used to detect antigen specific binding of IgG1, IgG2a, IgG2b, IgG3 and IgM isotypes were similar to the IgG assay described above with the only difference being the biotinylated anti-immunoglobulin used to detect the bound isotype. These assays employed biotinylated goat anti-IgG1 (#1070-08), Southern Biotechnology Associates), anti-IgG2a (#1080-08, SBA), anti-IgG2b (1090-08, SBA) […] (1100-08, SBA), and anti-IgM (1020-08, SBA). Antigens bound IgE was detected similarly, but using biotinylated EM95, a rat monoclonal antibody specific for mouse IgE. (Baniyash M, Eshhar Z, Eur J. Immunol. 14:799, 1984). Biotinylated goat anti-rat Ig was used as an added signal amplification step in the IgE ELISA. […] IgG1 was the major isotype seen in the animals which were injected with saline only, with a titer of 1/2700 for all three animals. […] The titers for IgM and IgG2b were similarly effected.

CD4+ T cells = assay: Cytokine production of purified CD4+ T cells from peptide Y pre-injected mice; details: CD4+ T cells from pre-injected mice compared to control CD4+ cells
B6CBAF1 mice [3] = assay: Tolerization s.c. then challenge with recombinant chain 1 of TRFP, chain 1 specific IL-2 production; details: 150 μg/dose s.c. days 0 and 5; challenge 100 μg recombinant chain 1 in CFA
Description: The mice were injected with 150 μg/dose of either the TRFP chain 1 or each of the peptides (days 0 and 5). The PBS alone and the PBS/peptides were injected in 300 μl/dose. The PBS/chain 1 of the TRFP protein was injected in 100 μl/dose. All tolerizing doses were at a single site under the dorsal skin between the forelimbs. On day 10 all of the animals received a challenge injection of 100 μg recombinant chain 1 of TRFP in 200 μl CFA as described above. On day 20 the animals were sacrificed and draining lymph nodes were removed as described above. The lymph node cells were suspended, rinsed, and cultured as above with or without 150 μg/ml recombinant chain 1 of TRFP. The lymph node cell cultures in this experiment were each 0.1 ml. The supernatants from the cultures were assayed for IL-2 as described above.

## peptide Y: amino acid residues 29-55 from chain 1 of TRFP (SEQ. ID. NO: 18) (KALPVVLENARILKNCVDAKMTEEDKE)
B6CBAF1 mice [1]
  spleen cell IL-2 production: limited in their ability to produce IL-2
  spleen cell proliferation: no effect on spleen cell proliferation
B6CBAF1 mice [1]; challenge 100 μg in CFA
  proliferation of and production of IL-2 by draining and mesenteric lymph node cells: decreased
Mice primed to rch1
  duration of inhibitory effects of subcutaneous peptide injection on T cell function: up to 56 days
[2]; 10 days after peptide Y/CFA challenge, sera 1/900
  IgG antibody specific for peptide Y: little antibody specific for peptide Y
[2]; mouse, in vivo
  peptide Y specific IgG2a, IgG3, or IgE: No binding above background
[2]; peptide Y tolerized animals
  peptide Y specific IgG2b: no IgG2b binding above background
  peptide Y specific serum IgM titer: 1/300
[2]; peptide Y tolerized animals (two animals / one animal)
  peptide Y specific IgG1 titer: 1/300 and no binding above background
CD4+ T cells
  reduction in the production of the cytokines (IL-2, IL-3 and IL-4): greater than 75%

## recombinant chain 1: recombinant TRFP chain 1 expressed in E. coli
B6CBAF1 mice [3]
  IL-2 production specific for chain 1 of TRFP: effective in decreasing IL-2 production
